Assay: in vivo
Conditions: female, athymic nude, mouse, liver, iv, 3.7 MBq (100 uCi), total radioactivity

**Q.** Which tissue uptake at 2 h does the source give for `N=C(N)NCCC[C@@H]1NC(=O)[C@H](CSC2CC(=O)N(CCNC(=O)CCCC(=O)Nc3ccc(C4=NNC(c5ccccn5)=C5CCC(OCCF)CCCC45)nc3)C2=O)NC(=O)[C@@H](Cc2ccc(O)cc2)NC(=O)[C@H](CC(=O)O)NC(=O)CNC1=O` (stereo partly shown) [^18F-TTM-RGD] here?
**A.** 2.35 ± 0.24 %ID/g

Source: article PMC4027965 (Molecular imaging, 2013)
